Test systems include NCI-H23; HCC 2998; SN12C; OVCAR-5; SF-295; 786-0; OVCAR-4; TK-10; RPMI-8226; SK-MEL-2; OVCAR-8; EKVX; CCRF-CEM; K562; NCI-H460; KM12; SK-MEL-5; HCT-15.
What all share (experiment): growth of human tumour cells (NCI), 48 h

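Dose response: 5 concentrations. Exposure: 48 h. Format: 96-well plates. Endpoint: linear interpolation; highest concentration if not reached. GI50: concentration for 50% inhibition of growth.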 Activity calls are given as the source filed them. Cut-off read from the data, not from the text of the source: active = GI50 up to about 1.1 µM and inactive = higher. A value given as a limit tells only on which side of the number the result lay.

As for `Cn1cnc([N+](=O)[O-])c1Sc1nnc(-c2ccc(Cl)cc2)n1C`, the GI50 in the assay on NCI-H23 was 16.6 µM (inactive); with HCC 2998, 17.9 µM (inactive); in the assay on SN12C, 14.7 µM (inactive); in the assay with OVCAR-5, 20.5 µM (inactive); with SF-295 it was 50 µM (inactive); with 786-0, > 10 µM (inactive). The GI50 with OVCAR-4 was 13.7 µM (inactive); in the assay with TK-10 it was 17.7 µM (inactive); in the assay on RPMI-8226, 16.4 µM (inactive); in the assay on SK-MEL-2, 15.5 µM (inactive); with OVCAR-8 it was 17.5 µM (inactive); in the assay on EKVX, 5.79 µM (inactive). In addition, the GI50 was 3.69 µM (inactive) in the assay with CCRF-CEM, 10.7 µM (inactive) in the assay with K562, 20.7 µM (inactive) in the assay on NCI-H460 and 20.1 µM (inactive) with KM12.

For `O=[N+]([O-])c1ccc(C(O)/C(=N/O)c2nc3ccc(Cl)cc3nc2O)cc1` (stereo unspecified), the GI50 in the assay with SK-MEL-5 is > 100 µM (inactive); with HCC 2998, > 100 µM (inactive); in the assay with HCT-15, over 100 µM; in the assay with SN12C, > 100 µM (inactive); in the assay with SF-295, > 100 µM (inactive); in the assay on 786-0, > 100 µM (inactive). The GI50 with OVCAR-4, in the assay on TK-10, in the assay with RPMI-8226, in the assay with SK-MEL-2, with OVCAR-8 and in the assay with EKVX was > 100 µM (inactive) in each case. Besides, the GI50 in the assay on CCRF-CEM, in the assay with K562, in the assay on NCI-H460 and with KM12 was > 100 µM (inactive) throughout.

Consider `CCOC(=O)CCCO`, for which the GI50 is > 100 µM (inactive) in the assay with SK-MEL-5; > 100 µM (inactive) with NCI-H23; > 100 µM (inactive) in the assay with HCC 2998; over 100 µM in the assay on HCT-15; > 100 µM (inactive) with SN12C; > 100 µM (inactive) in the assay with OVCAR-5. The GI50 with SF-295, in the assay with 786-0, in the assay with TK-10, with RPMI-8226, in the assay with SK-MEL-2 and in the assay on OVCAR-8 was > 100 µM (inactive) each time. Moreover, the GI50 in the assay with EKVX, in the assay on CCRF-CEM, in the assay on K562, in the assay on NCI-H460 and with KM12 was > 100 µM (inactive) each time.

Regarding `CCSC(=O)C1(C)OC2CCCCC2C1=O` (stereo unspecified), the GI50 in the assay with SK-MEL-5 was > 100 µM (inactive); in the assay with HCC 2998, > 100 µM (inactive); in the assay on HCT-15, over 100 µM; in the assay on SN12C, > 100 µM (inactive); in the assay on 786-0, > 100 µM (inactive); in the assay on OVCAR-4, > 100 µM (inactive). In addition, the GI50 with TK-10, in the assay with RPMI-8226, in the assay on SK-MEL-2, with OVCAR-8, in the assay on CCRF-CEM and with K562 was > 100 µM (inactive) in each case. The GI50 in the assay on NCI-H460 and in the assay on KM12 was > 100 µM (inactive) each time.

Regarding `CCOP(=O)(C/C(=N/NC(C)(C)C)C(=O)Nc1nc2ccc(C)cc2s1)OCC`, the GI50 is > 100 µM (inactive) with SK-MEL-5; > 100 µM (inactive) in the assay on NCI-H23; > 100 µM (inactive) in the assay on HCC 2998; over 100 µM in the assay on HCT-15; > 100 µM (inactive) in the assay on SN12C; > 100 µM (inactive) with OVCAR-5. For the same compound, the GI50 in the assay with SF-295, with 786-0, in the assay on OVCAR-4, in the assay with TK-10, in the assay on SK-MEL-2 and with OVCAR-8 was > 100 µM (inactive) in each case. The GI50 with EKVX, in the assay with CCRF-CEM, in the assay with K562, with NCI-H460 and in the assay on KM12 was > 100 µM (inactive) each time.

As for `NC12CC3CC(C1)CC(C(=O)O)(C3)C2`, the GI50 was > 100 µM (inactive) in the assay with SK-MEL-5; > 100 µM (inactive) with NCI-H23; > 100 µM (inactive) in the assay with HCC 2998; over 100 µM in the assay with HCT-15; > 100 µM (inactive) with SN12C; > 100 µM (inactive) with OVCAR-5. The GI50 in the assay with SF-295, in the assay with 786-0, with OVCAR-4, in the assay with TK-10, in the assay with RPMI-8226 and in the assay on OVCAR-8 was > 100 µM (inactive) each time. The GI50 in the assay with EKVX is > 100 µM (inactive); with CCRF-CEM, > 100 µM (inactive); in the assay with K562, 2.73 µM (inactive); in the assay on NCI-H460, > 100 µM (inactive); in the assay on KM12, > 100 µM (inactive).

For the compound `Cc1ccc(C2(C)NC(=S)N(NC(N)=S)C2=S)cc1` (stereo unspecified), the GI50 is > 100 µM (inactive) with SK-MEL-5; > 100 µM (inactive) in the assay on NCI-H23; > 100 µM (inactive) in the assay with HCC 2998; over 100 µM with HCT-15; > 100 µM (inactive) in the assay with SN12C; > 100 µM (inactive) in the assay with SF-295. For the same compound, the GI50 with 786-0 was 81.1 µM (inactive); in the assay on OVCAR-4 it was > 100 µM (inactive); in the assay with TK-10 it was > 100 µM (inactive); with RPMI-8226, 32.7 µM (inactive); in the assay with SK-MEL-2, > 100 µM (inactive); with OVCAR-8 it was > 100 µM (inactive). The GI50 with EKVX was > 100 µM (inactive); in the assay with CCRF-CEM it was 24.6 µM (inactive); with K562, 39.6 µM (inactive); with NCI-H460 it was > 100 µM (inactive).

For `O=C(Nc1cccc2c1C(=O)c1c(NC(=O)c3ccccc3)ccc(Nc3cccc4c3C(=O)c3ccccc3C4=O)c1C2=O)c1ccccc1`, the GI50 in the assay with SK-MEL-5 is > 100 µM (inactive); with HCC 2998 it was > 100 µM (inactive); in the assay on HCT-15, over 100 µM; with SN12C, > 100 µM (inactive); in the assay on 786-0, > 100 µM (inactive); with OVCAR-4, > 100 µM (inactive). Further, the GI50 in the assay on TK-10, with RPMI-8226, in the assay with SK-MEL-2, with OVCAR-8, with EKVX and in the assay with CCRF-CEM was > 100 µM (inactive) in each case. Besides, the GI50 in the assay with K562, in the assay with NCI-H460 and in the assay with KM12 was > 100 µM (inactive) each time.

As for `Cc1nc(-n2nc(-c3ccccc3)cc2-c2ccccc2)sc1C(=O)/C=C/c1ccc(/C=C/C(=O)c2sc(-n3nc(-c4ccccc4)cc3-c3ccccc3)nc2C)cc1`, the GI50 is 19.1 µM (inactive) in the assay on NCI-H23; 20.1 µM (inactive) in the assay on HCC 2998; 34.3 µM in the assay with HCT-15; 19.6 µM (inactive) in the assay with SN12C; 25.5 µM (inactive) in the assay on OVCAR-5; 23.9 µM (inactive) with SF-295. Besides, the GI50 was 18.6 µM (inactive) with 786-0; 35.2 µM (inactive) with OVCAR-4; 34.1 µM (inactive) in the assay with TK-10; 22.1 µM (inactive) in the assay with SK-MEL-2; 32.8 µM (inactive) in the assay on OVCAR-8; 46.5 µM (inactive) with EKVX. Further, the GI50 with CCRF-CEM is 30.6 µM (inactive); in the assay with K562 it was 30.3 µM (inactive); in the assay on NCI-H460, 29 µM (inactive); in the assay on KM12, 18.8 µM (inactive).

For `Cc1cc(C(C)C)cc(=O)c(O)c1`, the GI50 was > 100 µM (inactive) in the assay with SK-MEL-5; > 100 µM (inactive) in the assay with HCC 2998; over 100 µM with HCT-15; > 100 µM (inactive) in the assay on SN12C; > 100 µM (inactive) with OVCAR-5; > 100 µM (inactive) in the assay with SF-295. For the same compound, the GI50 in the assay on 786-0, in the assay with OVCAR-4, with TK-10, in the assay with RPMI-8226, in the assay on OVCAR-8 and with EKVX was > 100 µM (inactive) throughout. Besides, the GI50 in the assay on CCRF-CEM, with NCI-H460 and with KM12 was > 100 µM (inactive) each time.

As to `C/C(CC(=O)Nc1ccc([N+](=O)[O-])cc1)=N/N=C(N)N`, the GI50 in the assay on SK-MEL-5, in the assay on NCI-H23, in the assay with HCC 2998, in the assay on OVCAR-5, with SF-295 and with 786-0 was > 100 µM (inactive) in each case. Besides, the GI50 is > 100 µM (inactive) in the assay with TK-10; > 10 µM (inactive) in the assay with RPMI-8226; > 100 µM (inactive) with SK-MEL-2; > 100 µM (inactive) in the assay with OVCAR-8; > 100 µM (inactive) in the assay on EKVX; > 100 µM (inactive) in the assay with CCRF-CEM. Further, the GI50 in the assay on K562, in the assay with NCI-H460 and in the assay on KM12 was > 100 µM (inactive) throughout.

On to `CCOC(=O)/C([O-])=C(\C(=O)OCC)[n+]1c(C)n(C)c2ccccc21`, for which the GI50 in the assay on SK-MEL-5, with NCI-H23, in the assay with HCC 2998, in the assay on OVCAR-5, in the assay on SF-295 and with 786-0 was > 100 µM (inactive) in each case. For the same compound, the GI50 in the assay on OVCAR-4, in the assay with TK-10, in the assay with RPMI-8226, in the assay with SK-MEL-2, in the assay on OVCAR-8 and in the assay on EKVX was > 100 µM (inactive) each time. Moreover, the GI50 in the assay with CCRF-CEM, with K562, in the assay with NCI-H460 and with KM12 was > 100 µM (inactive) each time.

Take `Cc1ccc(SSCCCS(=O)O)cc1`: the GI50 in the assay on SK-MEL-5 is 30.1 µM (inactive); in the assay with NCI-H23 it was 39 µM (inactive); in the assay with HCC 2998, 60 µM (inactive); in the assay with HCT-15, 29.2 µM; in the assay on SN12C, 21.6 µM (inactive); with OVCAR-5, 74.6 µM (inactive). The GI50 was 32.8 µM (inactive) in the assay with SF-295; 40.4 µM (inactive) with 786-0; 43.8 µM (inactive) in the assay with OVCAR-4; 39.5 µM (inactive) in the assay with TK-10; 37.1 µM (inactive) with SK-MEL-2; 21.6 µM (inactive) in the assay on OVCAR-8. The GI50 is 33.1 µM (inactive) in the assay with EKVX, 0.766 µM (active) in the assay with K562, 63.1 µM (inactive) in the assay on NCI-H460 and 28.8 µM (inactive) in the assay with KM12.

The values above are taken from ChEMBL document CHEMBL1201862, “PubChem BioAssay data set” (2004).
